Patent publication US9078929B2, “ε-Polylysine conjugates and the use thereof” (Merck Patent GmbH, priority 2009, dated 2015)

Key:
[1] = Comparative planar scintigraphs, rat model; type: in vivo
Description: (§1) The uptake of ^99mTc-MAG3 and of ^99mTc-DMSA are compared with the uptake of (ε-L-polylysine-DOTA, loaded with ^111In) in the rat and mouse model in planar scintigraphs.

[2] = Comparative planar scintigraphs, mouse model; type: in vivo
Description: as §1

proteases = settings: in contrast to α-polylysine; cited from earlier work

Molecule: O=C(O)CNC(=O)CNC(=O)CNC(=O)CS [^99mTc-MAG3, mercaptoacetyltriglycine, metal not drawn]
- kidney to background ratio compared with ε-L-polylysine-DOTA loaded with 111In [1]: worse kidney to background ratio
- kidney to background ratio compared with ε-L-polylysine-DOTA loaded with 111In [2]: worse kidney to background ratio

Molecule: ε-polylysine
- enzymatic degradation by proteases (proteases): not enzymatically degraded
